From patent US20100022491A1, “4-HYDROXY-2-OXO-2,3-DIHYDRO-1,3-BENZOTHIAZOL-7YL COMPOUNDS FOR MODULATION OF B2-ADRENORECEPTOR ACTIVITY” (ASTRAZENECA AB, priority 2006, published 2010)
Counter-ions that a name gives are not always drawn.

Legend:
Adrenergic β2 = target: T1, Adrenergic β2 (Homo sapiens, UniProt P07550); experiment: Adrenergic β2 mediated cAMP production in H292 cells; type: cell-based; details: for EC50: read-out: β2 pEC50 (converted); for β2 Int Act: Intrinsic Activity as a fraction relative to the maximum activity determined for formoterol
T1 construct: Adherent H292 cells were removed from tissue culture flasks; endogenous in cells; host or cells: H292 cells
T1 sequence (P07550 whole entry): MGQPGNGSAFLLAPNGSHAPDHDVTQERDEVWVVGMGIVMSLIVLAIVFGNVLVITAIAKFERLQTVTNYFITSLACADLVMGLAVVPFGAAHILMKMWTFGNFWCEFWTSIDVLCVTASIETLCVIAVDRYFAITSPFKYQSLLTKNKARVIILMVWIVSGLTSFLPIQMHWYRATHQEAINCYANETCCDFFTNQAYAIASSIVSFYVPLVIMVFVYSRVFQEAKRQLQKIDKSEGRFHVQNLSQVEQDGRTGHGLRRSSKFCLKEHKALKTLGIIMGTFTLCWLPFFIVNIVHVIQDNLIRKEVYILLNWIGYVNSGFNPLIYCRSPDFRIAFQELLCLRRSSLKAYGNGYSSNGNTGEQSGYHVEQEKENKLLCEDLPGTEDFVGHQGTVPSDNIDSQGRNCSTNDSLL
Method in brief: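 cAMP accumulation in adherent H292 cells, measured by AlphaScreen and calibrated with cAMP standards. Compounds incubated 60 min at room temperature after 10 min rolipram (final 300 μM; vehicle 1.6% DMSO). pEC50 and intrinsic activity, as a fraction of formoterol's maximum, from four-parameter logistic fit.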

[1] = target: T2, recombinant human adrenergic beta 1 receptors (Homo sapiens, UniProt P08588); experiment: Adrenergic β1 selectivity binding assay ([125I]-Iodocyanopindolol); details: inhibition of [125I]-Iodocyanopindolol (0.036 nM) binding; for IC50: read-out: β1 bind p IC50 (converted)
T2 construct: purchased Euroscreen
T2 sequence (P08588 whole entry): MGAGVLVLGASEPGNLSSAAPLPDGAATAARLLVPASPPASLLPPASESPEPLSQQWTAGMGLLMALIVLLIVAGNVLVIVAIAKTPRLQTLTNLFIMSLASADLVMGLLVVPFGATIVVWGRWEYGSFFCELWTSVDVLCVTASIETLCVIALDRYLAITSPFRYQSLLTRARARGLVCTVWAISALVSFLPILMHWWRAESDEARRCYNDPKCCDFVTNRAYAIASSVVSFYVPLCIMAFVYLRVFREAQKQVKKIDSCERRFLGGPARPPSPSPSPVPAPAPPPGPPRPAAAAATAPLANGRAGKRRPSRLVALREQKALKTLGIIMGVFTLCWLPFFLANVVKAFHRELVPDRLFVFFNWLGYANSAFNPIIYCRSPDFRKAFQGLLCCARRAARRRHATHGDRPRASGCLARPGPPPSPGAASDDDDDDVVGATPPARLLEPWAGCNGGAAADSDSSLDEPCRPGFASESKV
Method: Membranes containing recombinant human adrenergic beta 1 receptors were obtained from Euroscreen. These were diluted in Assay Buffer (50 mM HEPES, 1 mM EDTA, 120 mM NaCl, 0.1% gelatin, pH 7.4) to provide a final concentration of membranes that gave a clear window between maximum and minimum specific binding.
Assays were performed in U-bottomed 96-well polypropylene plates. 10 μL [^125I]-Iodocyanopindolol (0.036 nM final concentration) and 10 μL of test compound (10× final concentration) were added to each test well. For each assay plate 8 replicates were obtained for [^125I]-Iodocyanopindolol binding in the presence of 10 μL vehicle (10% (v/v) DMSO in Assay Buffer; defining maximum binding) or 10 μL Propranolol (10 μM final concentration; defining non-specific binding (NSB)). Membranes were then added to achieve a final volume of 100 μL. The plates were incubated for 2 hours at room temperature and then filtered onto PEI coated GF/B filter plates, pre-soaked for 1 hour in Assay Buffer, using a 96-well plate Tomtec cell harvester. Five washes with 250 μL wash buffer (50 mM HEPES, 1 mM EDTA, 120 mM NaCl, pH 7.4) were performed at 4° C. to remove unbound radioactivity. The plates were dried then sealed from underneath using Packard plate sealers and MicroScint-O (50 μL) was added to each well. The plates were sealed (TopSeal A) and filter-bound radioactivity was measured with a scintillation counter (TopCount, Packard BioScience) using a 3-minute counting protocol.
Total specific binding (B0) was determined by subtracting the mean NSB from the mean maximum binding. NSB values were also subtracted from values from all other wells. […] Data was fitted to a four parameter logistic equation to determine the compound potency, which was expressed as pIC50 (negative log molar concentration inducing 50% inhibition of [^125I]-Iodocyanopindolol binding).

[2] = target: T3, recombinant human Dopamine Subtype D2s receptors (Homo sapiens, UniProt P14416); experiment: Dopamine D2 selectivity binding assay ([3H]-spiperone); details: inhibition of [3H]-spiperone (0.16 nM) binding; for IC50: read-out: D2 bind pIC50 (converted)
T3 construct: purchased Perkin Elmer
T3 sequence (P14416 1-414 isoform P14416-2): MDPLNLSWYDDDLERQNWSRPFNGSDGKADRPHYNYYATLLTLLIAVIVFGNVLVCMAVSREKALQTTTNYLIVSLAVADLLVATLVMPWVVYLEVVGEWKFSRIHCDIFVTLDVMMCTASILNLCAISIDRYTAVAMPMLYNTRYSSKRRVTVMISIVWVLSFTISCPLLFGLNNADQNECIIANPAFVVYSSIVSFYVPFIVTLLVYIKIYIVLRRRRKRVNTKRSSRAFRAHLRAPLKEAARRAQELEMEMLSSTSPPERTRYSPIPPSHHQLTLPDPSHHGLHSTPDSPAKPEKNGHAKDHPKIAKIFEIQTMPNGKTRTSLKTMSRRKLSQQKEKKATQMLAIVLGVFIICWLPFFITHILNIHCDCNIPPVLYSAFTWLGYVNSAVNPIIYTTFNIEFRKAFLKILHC
Method in brief: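 Displacement of [3H]-spiperone (0.16 nM final) from human D2s receptor membranes in pH 7.4 HEPES buffer over 2 h at room temperature, then filtration and scintillation counting. Specific binding taken as vehicle minus 10 μM haloperidol wells. Potency given as pIC50 from a four-parameter logistic curve.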

[3] = H292 cells, cAMP by AlphaScreen, 60 minutes at room temperature, rolipram 300 μM

SMILES | EC50 (Adrenergic β2; [3]) | β2 Int Act (Adrenergic β2) | IC50 [1] | IC50 [2] | β2 pEC50 (Adrenergic β2; [3]) | β1 bind p IC50 [1] | D2 bind pIC50 [2]
O=C(CCNCCc1cccc(F)c1)N(CCNCCc1ccc(O)c2[nH]c(=O)sc12)C1CCCCC1 [Example 96, N-Cyclohexyl-N^3-[2-(3-fluorophenyl)ethyl]-N-(2-{[2-(4-hydroxy-2-oxo-2,3-dihydro-1,3-benzothiazol-7-yl)ethyl]amino}ethyl)-β-alaninamide dihydrobromide salt] | 2.51 nM | 0.85 | 6310 nM | 398 nM |  |  | 
O=C(CCNCCc1cc(F)cc(F)c1)N(CCNCCc1ccc(O)c2[nH]c(=O)sc12)C1CCCCC1 [Example 78, N^1-Cyclohexyl-N^3-[2-(3,5-difluorophenyl)ethyl]-N^1-(2-{[2-(4-hydroxy-2-oxo-2,3-dihydro-1,3-benzothiazol-7-yl)ethyl]amino}ethyl)-β-alaninamide bis-trifluoroacetic acid salt] | 3.16 nM | 0.91 | 3980 nM | 316 nM |  |  | 
O=C(CCNCCc1ccc(Cl)cc1)N(CCNCCc1ccc(O)c2[nH]c(=O)sc12)C1CCCCC1 [Example 13, N^3-[2-(4-Chlorophenyl)ethyl]-N-cyclohexyl-N-(2-{[2-(4-hydroxy-2-oxo-2,3-dihydro-1,3-benzothiazol-7-yl)ethyl]amino}ethyl)-β-alaninamide bis-trifluoroacetic acid salt] | 5.01 nM | 0.71 | 3160 nM | 126 nM |  |  | 
O=C(CCNCCc1cccc(Cl)c1)N(CCNCCc1ccc(O)c2[nH]c(=O)sc12)C1CCOCC1 [Example 22, N^3-[2-(3-Chlorophenyl)ethyl]-N-(2-{[2-(4-hydroxy-2-oxo-2,3-dihydro-1,3-benzothiazol-7-yl)ethyl]amino}ethyl)-N-(tetrahydro-2H-pyran-4-yl)-β-alaninamide bis-trifluoroacetic acid salt] | 2.51 nM | 0.96 | 3980 nM | 7940 nM |  |  | 
O=C(CCNCCc1ccccc1)N(CCNCCc1ccc(O)c2[nH]c(=O)sc12)C1CCCC1 [Example 2, N-Cyclopentyl-N-(2-{[2-(4-hydroxy-2-oxo-2,3-dihydro-1,3-benzothiazol-7-yl)ethyl]amino}ethyl)-N^3-(2-phenylethyl)-β-alaninamide bis-trifluoroacetic acid salt] | 3.16 nM | 1.04 | 5010 nM | 251 nM |  |  | 
O=C(CCNCCc1cccc(Cl)c1)N(CCNCCc1ccc(O)c2[nH]c(=O)sc12)C1CCCCC1 [Example 12, N^3-[2-(3-Chlorophenyl)ethyl]-N-cyclohexyl-N-(2-{[2-(4-hydroxy-2-oxo-2,3-dihydro-1,3-benzothiazol-7-yl)ethyl]amino}ethyl)-β-alaninamide bis-trifluoroacetic acid salt] | 2.51 nM | 0.87 | 3160 nM | 50.1 nM |  |  | 
CC(C)(CO)CN(CCNCCc1ccc(O)c2[nH]c(=O)sc12)C(=O)CCNCCc1cccc(Cl)c1 [Example 66, N^3-[2-(3-Chlorophenyl)ethyl]-N^1-(3-hydroxy-2,2-dimethylpropyl)-N^1-(2-{[2-(4-hydroxy-2-oxo-2,3-dihydro-1,3-benzothiazol-7-yl)ethyl]amino}ethyl)-β-alaninamide bis-trifluoroacetic acid salt] | 12.6 nM | 0.59 | 1580 nM | 631 nM |  |  | 
O=C(CCNCCc1cccc(O)c1)N(CCNCCc1ccc(O)c2[nH]c(=O)sc12)C1CCCCC1 [Example 71, N^1-Cyclohexyl-N^1-(2-{[2-(4-hydroxy-2-oxo-2,3-dihydro-1,3-benzothiazol-7-yl)ethyl]amino}ethyl)-N^3-[2-(3-hydroxyphenyl)ethyl]-β-alaninamide bis-trifluoroacetic acid salt] | 0.398 nM | 0.97 | 3980 nM | 100 nM |  |  | 
O=C(CCNCCc1cc(F)cc(F)c1)N(CCNCCc1ccc(O)c2[nH]c(=O)sc12)C1CCCCCC1 [Example 58, N^1-Cycloheptyl-N^3-[2-(3,5-difluorophenyl)ethyl]-N^1-(2-{[2-(4-hydroxy-2-oxo-2,3-dihydro-1,3-benzothiazol-7-yl)ethyl]amino}ethyl)-β-alaninamide bis-trifluoroacetic acid salt] | 3.98 nM | 0.84 | 5010 nM | 158 nM |  |  | 
COc1ccc(CCNCCC(=O)N(CCNCCc2ccc(O)c3[nH]c(=O)sc23)C2CCCCC2)cc1 [Example 68, N^1-Cyclohexyl-N^1-(2-{[2-(4-hydroxy-2-oxo-2,3-dihydro-1,3-benzothiazol-7-yl)ethyl]amino}ethyl)-N^3-[2-(4-methoxyphenyl)ethyl]-β-alaninamide bis-trifluoroacetic acid salt] | 10 nM | 0.68 | 3980 nM | 50.1 nM |  |  | 
C[C@H](CNCCC(=O)N(CCNCCc1ccc(O)c2[nH]c(=O)sc12)CC(C)(C)C)c1ccccc1 [Example 11, N-(2,2-Dimethylpropyl)-N-(2-{[2-(4-hydroxy-2-oxo-2,3-dihydro-1,3-benzothiazol-7-yl)ethyl]amino}ethyl)-N^3-[(2S)-2-phenylpropyl]-β-alaninamide bis-trifluoroacetic acid salt] | 15.8 nM | 0.84 | 7940 nM | 501 nM |  |  | 
Cc1cccc(CCNCCC(=O)N(CCNCCc2ccc(O)c3[nH]c(=O)sc23)C2CCOCC2)c1 [Example 25, N-(2-{[2-(4-Hydroxy-2-oxo-2,3-dihydro-1,3-benzothiazol-7-yl)ethyl]amino}ethyl)-N^3-[2-(3-methylphenyl)ethyl]-N-(tetrahydro-2H-pyran-4-yl)-β-alaninamide bis-trifluoroacetic acid salt] | 7.94 nM | 1.05 | 5010 nM | 2510 nM |  |  | 
NS(=O)(=O)c1ccc(CCNCCC(=O)N(CCNCCc2ccc(O)c3[nH]c(=O)sc23)C2CCCCC2)cc1 [Example 69, N^3-{2-[4-(Aminosulfonyl)phenyl]ethyl}-N^1-cyclohexyl-N^1-(2-{[2-(4-hydroxy-2-oxo-2,3-dihydro-1,3-benzothiazol-7-yl)ethyl]amino}ethyl)-β-alaninamide bis-trifluoroacetic acid salt] | 2 nM | 0.82 | 6310 nM | 100 nM |  |  | 
O=C(CCNCCc1ccc(F)c(F)c1)N(CCNCCc1ccc(O)c2[nH]c(=O)sc12)C1CCCCCC1 [Example 53, N^1-Cycloheptyl-N^1-[2-(3,4-difluorophenyl)ethyl]-N^1-(2-{[2-(4-hydroxy-2-oxo-2,3-dihydro-1,3-benzothiazol-7-yl)ethyl]amino}ethyl)-β-alaninamide bis-trifluoroacetic acid salt] | 10 nM | 0.74 | 3980 nM | 79.4 nM |  |  | 
O=C(CCNCCc1ccc(F)c(F)c1)N(CCNCCc1ccc(O)c2[nH]c(=O)sc12)C1CCCCC1 [Example 73, N^1-Cyclohexyl-N^3-[2-(3,4-difluorophenyl)ethyl]-N^1-(2-{[2-(4-hydroxy-2-oxo-2,3-dihydro-1,3-benzothiazol-7-yl)ethyl]amino}ethyl)-β-alaninamide bis-trifluoroacetic acid salt] | 5.01 nM | 0.85 | 7940 nM | 200 nM |  |  | 
O=C(CCNCCc1ccc(Cl)c(Cl)c1)N(CCNCCc1ccc(O)c2[nH]c(=O)sc12)C1CCOCC1 [Example 94, N^3-[2-(3,4-Dichlorophenyl)ethyl]-N-(2-{[2-(4-hydroxy-2-oxo-2,3-dihydro-1,3-benzothiazol-7-yl)ethyl]amino}ethyl)-N-(tetrahydro-2H-pyran-4-yl)-β-alaninamide dihydrobromide salt] |  |  |  |  | 8.1 | 5.7 | 6.1
